Data from ChEMBL document CHEMBL3885881, “DrugMatrix”.

Species on record: Rattus norvegicus
Test: DrugMatrix - Regimen: Daily Repeat
Format: toxicity, organism-based, Sprague-Dawley
Parameters: regimen Daily Repeat, gender Male, age 6-8 weeks
Settings: in vivo, po, route oral GAVAGE, vehicle .5 % CMC; for ABSOLUTE BASOPHIL / ABSOLUTE EOSINOPHIL / ABSOLUTE LYMPHOCYTE / ABSOLUTE MONOCYTE / ABSOLUTE SEGMENTED NEUTROPHIL / BASOPHIL / EOSINOPHIL / ERYTHROCYTE COUNT / HEMATOCRIT / HEMOGLOBIN / LEUKOCYTE COUNT / LYMPHOCYTE / MEAN CORPUSCULAR HEMOGLOBIN / MEAN CORPUSCULAR HEMOGLOBIN CONCENTRATION / MEAN CORPUSCULAR VOLUME / MONOCYTE / NEUTROPHIL / NUCLEATED RED BLOOD CELLS / PLATELET COUNT: tissue Blood; for ALANINE AMINOTRANSFERASE / ALBUMIN / ALKALINE PHOSPHATASE / ASPARTATE AMINOTRANSFERASE / BLOOD UREA NITROGEN / CARBON DIOXIDE / CHLORIDE / CHOLESTEROL / CREATINE PHOSPHOKINASE / CREATININE / GLUCOSE / LACTATE DEHYDROGENASE / LIPASE / PHOSPHORUS / POTASSIUM / SODIUM / TOTAL BILIRUBIN / TOTAL PROTEIN / URIC ACID: tissue Plasma
[1] = 0 mg/kg, 72 h, dose level Control, time 3 day
[2] = 0 mg/kg, 120 h, dose level Control, time 5 day
[3] = 100 mg/kg, 72 h, dose level Low, time 3 day

SMILES: O=C(O)CCc1nc(-c2ccccc2)c(-c2ccccc2)o1 [OXAPROZIN]
- ABSOLUTE BASOPHIL [1]: 0 CELLS/uL
- ABSOLUTE EOSINOPHIL [1]: 0 CELLS/uL
- ABSOLUTE LYMPHOCYTE [1]: 12269.67 CELLS/uL
- ABSOLUTE MONOCYTE [1]: 160.33 CELLS/uL
- ABSOLUTE SEGMENTED NEUTROPHIL [1]: 970 CELLS/uL
- BASOPHIL [1]: 0%
- EOSINOPHIL [1]: 0%
- ERYTHROCYTE COUNT [1]: 5.76 x10E6/uL
- HEMATOCRIT [1]: 36.57%
- HEMOGLOBIN [1]: 14.22 G/DL
- LEUKOCYTE COUNT [1]: 13.4 x10E3/uL
- LYMPHOCYTE [1]: 91.67%
- MEAN CORPUSCULAR HEMOGLOBIN [1]: 24.67 pg
- MEAN CORPUSCULAR HEMOGLOBIN CONCENTRATION [1]: 38.85 G/DL
- MEAN CORPUSCULAR VOLUME [1]: 63.52 fL
- MONOCYTE [1]: 1.17%
- NEUTROPHIL [1]: 7.17%
- NUCLEATED RED BLOOD CELLS [1]: 0.33 /100WBC
- PLATELET COUNT [1]: 1250.83 x10E3/uL
- ALANINE AMINOTRANSFERASE [1]: 49.17 u/L
- ALBUMIN [1]: 4.33 G/DL
- ALKALINE PHOSPHATASE [1]: 378.5 u/L
- ASPARTATE AMINOTRANSFERASE [1]: 82.17 u/L
- BLOOD UREA NITROGEN [1]: 15 mg/dL
- CARBON DIOXIDE [1]: 34.33 mmol/L
- CHLORIDE [1]: 99.17 MEQ/L
- CHOLESTEROL [1]: 71.17 mg/dL
- CREATINE PHOSPHOKINASE [1]: 258.67 u/L
- CREATININE [1]: 0.18 mg/dL
- GLUCOSE [1]: 142.67 mg/dL
- LACTATE DEHYDROGENASE [1]: 154.33 u/L
- LIPASE [1]: 9 u/L
- PHOSPHORUS [1]: 11.67 mg/dL
- POTASSIUM [1]: 7.13 MEQ/L
- SODIUM [1]: 142.22 MEQ/L
- TOTAL BILIRUBIN [1]: 0.18 mg/dL
- TOTAL PROTEIN [1]: 5.77 G/DL
- URIC ACID [1]: 1.55 mg/dL
- ABSOLUTE BASOPHIL [2]: 0 CELLS/uL
- ABSOLUTE EOSINOPHIL [2]: 23.33 CELLS/uL
- ABSOLUTE LYMPHOCYTE [2]: 14943.67 CELLS/uL
- ABSOLUTE MONOCYTE [2]: 32 CELLS/uL
- ABSOLUTE SEGMENTED NEUTROPHIL [2]: 1084.33 CELLS/uL
- BASOPHIL [2]: 0%
- EOSINOPHIL [2]: 0.17%
- ERYTHROCYTE COUNT [2]: 5.71 x10E6/uL
- HEMATOCRIT [2]: 35.28%
- HEMOGLOBIN [2]: 14.27 G/DL
- LEUKOCYTE COUNT [2]: 16.08 x10E3/uL
- LYMPHOCYTE [2]: 93%
- MEAN CORPUSCULAR HEMOGLOBIN [2]: 25.02 pg
- MEAN CORPUSCULAR HEMOGLOBIN CONCENTRATION [2]: 40.43 G/DL
- MEAN CORPUSCULAR VOLUME [2]: 61.82 fL
- MONOCYTE [2]: 0.17%
- NEUTROPHIL [2]: 6.67%
- NUCLEATED RED BLOOD CELLS [2]: 0.33 /100WBC
- PLATELET COUNT [2]: 1274 x10E3/uL
- ALANINE AMINOTRANSFERASE [2]: 54.17 u/L
- ALBUMIN [2]: 4.22 G/DL
- ALKALINE PHOSPHATASE [2]: 373.17 u/L
- ASPARTATE AMINOTRANSFERASE [2]: 81.83 u/L
- BLOOD UREA NITROGEN [2]: 16.67 mg/dL
- CARBON DIOXIDE [2]: 30.33 mmol/L
- CHLORIDE [2]: 99 MEQ/L
- CHOLESTEROL [2]: 71 mg/dL
- CREATINE PHOSPHOKINASE [2]: 273.5 u/L
- CREATININE [2]: 0.22 mg/dL
- GLUCOSE [2]: 141.83 mg/dL
- LACTATE DEHYDROGENASE [2]: 153.67 u/L
- LIPASE [2]: 10.33 u/L
- PHOSPHORUS [2]: 11.38 mg/dL
- POTASSIUM [2]: 7.08 MEQ/L
- SODIUM [2]: 142.75 MEQ/L
- TOTAL BILIRUBIN [2]: 0.18 mg/dL
- TOTAL PROTEIN [2]: 6.1 G/DL
- URIC ACID [2]: 1.67 mg/dL
- ABSOLUTE BASOPHIL [3]: 0 CELLS/uL
- ABSOLUTE EOSINOPHIL [3]: 43.67 CELLS/uL
- ABSOLUTE LYMPHOCYTE [3]: 14019 CELLS/uL
- ABSOLUTE MONOCYTE [3]: 367 CELLS/uL
- ABSOLUTE SEGMENTED NEUTROPHIL [3]: 1137 CELLS/uL
- BASOPHIL [3]: 0%
- EOSINOPHIL [3]: 0.33%
- ERYTHROCYTE COUNT [3]: 5.52 x10E6/uL
- HEMATOCRIT [3]: 36.5%
- HEMOGLOBIN [3]: 14.27 G/DL
- LEUKOCYTE COUNT [3]: 15.57 x10E3/uL
- LYMPHOCYTE [3]: 89.67%
- MEAN CORPUSCULAR HEMOGLOBIN [3]: 25.87 pg
- MEAN CORPUSCULAR HEMOGLOBIN CONCENTRATION [3]: 39.17 G/DL
- MEAN CORPUSCULAR VOLUME [3]: 66.13 fL
- MONOCYTE [3]: 2.33%
- NEUTROPHIL [3]: 7.67%
- NUCLEATED RED BLOOD CELLS [3]: 0.67 /100WBC
- PLATELET COUNT [3]: 1268.67 x10E3/uL
- ALANINE AMINOTRANSFERASE [3]: 66 u/L
- ALBUMIN [3]: 4.57 G/DL
- ALKALINE PHOSPHATASE [3]: 374.67 u/L
- ASPARTATE AMINOTRANSFERASE [3]: 95 u/L
- BLOOD UREA NITROGEN [3]: 16.67 mg/dL
- CARBON DIOXIDE [3]: 29.67 mmol/L
- CHLORIDE [3]: 99.67 MEQ/L
- CHOLESTEROL [3]: 67 mg/dL
- CREATINE PHOSPHOKINASE [3]: 308 u/L
- CREATININE [3]: 0.25 mg/dL
- GLUCOSE [3]: 141.33 mg/dL
- LACTATE DEHYDROGENASE [3]: 432 u/L
- LIPASE [3]: 8.67 u/L
- PHOSPHORUS [3]: 11.9 mg/dL
- POTASSIUM [3]: 6.67 MEQ/L
- SODIUM [3]: 145.33 MEQ/L
- TOTAL BILIRUBIN [3]: 0.33 mg/dL
- TOTAL PROTEIN [3]: 6.13 G/DL
- URIC ACID [3]: 2.03 mg/dL
